Experimental data from US11459586B2, “Methods for increasing efficiency of nuclease-mediated gene editing in stem cells” (President and Fellows of Harvard College, priority 2016, dated 2022).

System: human iPSC
Assay: gene targeting (mThy1, mCD147) in hiPSC transiently transfected with Cas9-IRES-anti-apoptotic gene plasmids
Assay type: cell-based
Experimental: FIGS. 4A-D. Bcl-2 overexpression increases HR-mediated gene targeting in human iPSC when transiently transfected with the Cas9 nuclease. FIG. 4A. Mouse Thy1 gene targeting scheme. FIG. 4B. Plasmids were constructed to constitutively express Cas9 together with an anti-apoptotic gene (separated by an IRES) under the constitutively active EF1α promoter. Plain human iPSC were nucleofected with 0.5 μg of one of these Cas9 plasmids together with 2 μg of the mThy1 targeting vector and 1.5 μg of plasmids expressing the Thy1 Left, Right, both, or no sgRNAs (pUC19). Five days later, cells were analyzed by flow cytometry. FIG. 4C. Flow cytometry staining for mThy1 and hThy1 for the Cas9 only sample gated on live single cells; the percent of cells in each quadrant is indicated. […] FIG. 4D. Compiled gene editing frequencies. The percent of mThy1^+hThy1^− (bottom portion of each bar in the left, center, and right grafts), mThy1^+hThy1^+ (top portion of bars in the left and center graphs), and mThy1^−hThy1^− (top portion of bars in the right graph) cells is graphed for each indicated sample. Lines mark the percentages for the Cas9 only sample. Results are representative of two independent experiments.
FIGS. 8A-F. Wild type Bcl-2 improves gene targeting at various genomic loci across multiple hiPSC lines. FIG. 8A. Plasmids were constructed to constitutively express the Cas9 nuclease with a form of Bcl-2 (separated by an IRES), and a sgRNA. Three human iPSC lines were nucleofected with 2 μg of mThy1 or mCD147 targeting vector and 2 μg of “Cas9 sgRNA” or “Cas9 Bcl-2 sgRNA” expression plasmid. 5-9 days later, cells were analyzed by flow cytometry. FIG. 8B. Mouse Thy1 gene targeting scheme. FIG. 8C. Single amino acid mutations were generated for the Bcl-2 BH1 (G145A) or BH4 (Y28A) domains. Compiled gene editing frequencies for cells transfected with the Left, Right, or Both Thy1 sgRNAs. The percent of mThy1^+hThy1^− (bottom portion of each set of bars in each graph), mThy1^+hThy1^+ (top portion of left and center sets of bars in each graph and center portion of right set of bars in each graph), and mThy1^−hThy1^− (top portion of right set of bars in each graph) cells among the various samples is indicated. FIG. 8D. Mouse CD147 gene targeting scheme. FIG. 8E. Flow cytometry staining for mCD147 and hCD147 for retrovirally-derived PGP1 hiPSC transfected with “Cas9 sgRNA” or “Cas9 Bcl-2 sgRNA”. Samples are gated on live single cells; the percent of cells in each quadrant is indicated. FIG. 8F. Compiled gene editing frequencies for cells transfected with the Left, Right, or both CD147 sgRNAs. The percent of mCD147^+hCD147^− (bottom portion of each set of bars in each graph), mCD147^+hCD147^+ (top portion of left and center sets of bars in each graph and center portion of right set of bars in each graph), and mCD147^−hCD147^− (top portion of right set of bars in each graph) cells among the three hiPSC lines is indicated.
PCR reactions were done using polymerase sold under the trademark KAPA HIFI™ HotStart polymerase; primers and double-stranded DNA fragments sold under the trademark GBLOCKS® are from IDT. Plasmids were constructed using isothermal assembly, transformed into Stbl3 competent E. coli (Invitrogen), grown at 30° C., and verified by Sanger sequencing (Genewiz). Anti-apoptotic genes were obtained from previously published plasmids: Bcl-2 (Addgene plasmid #8793) and Bcl-xL (#8790) (Cheng et al., 2001); Bcl2A1 (#36973) (Pratt et al., 2012); and Mcl-1 (#21605) (Maurer et al., 2006). The dominant negative p53 sequence from Addgene plasmid #9058 (Hahn et al., 2002) was synthesized as a gBlock. These genes were cloned into the EF1α promoter-Cas9 nuclease plasmid after an IRES.
The U6 promoter-sgRNA (for each sgRNA sequence) was cloned into the EF1α promoter-Cas9 nuclease or EF1α promoter-Cas9 nuclease-IRES-Bcl-2 expression plasmids to form the “Cas9 only sgRNA” or “Cas9 Bcl-2 sgRNA” plasmids used in Examples 6 and 7. […]

Bcl-2: B cell lymphoma 2 protein, anti-apoptotic, overexpressed from lentivirus or Cas9 plasmid
gene targeting at the CD147 and Thy1 loci (Bcl-2 on the Cas9 plasmid, PGP4 hiPSC line): markedly improved gene targeting
mCD147 gene targeting frequencies (Bcl-2 on the Cas9 plasmid, retroviral and non-integrating PGP1 hiPSC lines): substantially and reproducibly increased gene targeting frequencies
mThy1 gene targeting, wild type vs mutant Bcl-2 (Cas9 Bcl-2 sgRNA plasmids, transient transfection): greatest enhancement
mThy1 gene targeting frequencies compared to Cas9 only controls (transient transfection of Cas9-IRES-anti-apoptotic factor plasmid): the only anti-apoptotic factor that increased gene targeting frequencies
